Residues, ends and D or L forms follow the SMILES beside them.
Tests used:
[1] = tested on: HepG2 hepatoma cell line; assay: HepG2 cytotoxicity evaluation of peptide (MTT); assay type: cell-based, human; conditions: tested 0.01 to 1000 ug/ml, 24 hours, non-toxic concentration
Protocol: After culturing a HepG2 hepatoma cell line, three kinds of synthetic peptides were added by concentration, and MTT (methylthiazol tetrazolium bromide, Sigma Aldrich) was carried out to confirm cell viability. An appropriate amount (1×10^5/well) of cells was seeded on each well in a 24-well plate (BD, Falcon) to treat a sample according to the concentration, and cell viability was confirmed after cultivation for 24 hours in a 37° C. incubator.

[2] = tested on: HepG2 cells; assay: Hepatocyte protection ability of peptide against t-BHP damage (MTT); assay type: cell-based, human; conditions: 10 mM t-BHP
Protocol: HepG2 cells, which are hepatoma cell lines, were dispensed in the 24-well plate at 1×10^5/well and cultured. Thereafter, in order to confirm hepatocyte protection ability of three kinds of synthetic peptides, the peptides were treated by concentration, cultured for 23 hours, and then 10 mM of t-BHP was treated for damage to the hepatocytes to culture the same for 90 minutes.

Compound | Test Concentration Setting, Cytotoxicity (HepG2) [1] | Hepatocyte Protection Ability ([2]; 10 ug/ml peptide) | Hepatocyte Protection Ability ([2]; 0.1 ug/ml peptide) | Hepatocyte Protection Ability ([2]; 1 ug/ml peptide)
CC(C)[C@H](N)C(=O)N[C@H](C(=O)N[C@H](C(=O)N[C@@H](CCC(=O)O)C(=O)O)C(C)C)C(C)C [PEP-1, VVVE] (H-VVVE-OH; N-terminus and C-terminus assumed) | less than 10 ug/ml | 7% | – | –
CC(C)C[C@H](NC(=O)CNC(=O)[C@@H](N)CC(=O)O)C(=O)N[C@@H](Cc1c[nH]cn1)C(=O)N[C@@H](CC(C)C)C(=O)N[C@@H](CCCNC(=N)N)C(=O)O [PEP-2, DGLHLR] (H-DGLHLR-OH; N-terminus and C-terminus assumed) | less than 10 ug/ml | 26% | 15% | 20%
CC(C)[C@H](NC(=O)[C@H](CO)NC(=O)[C@@H]1CCCN1C(=O)[C@H](CC(N)=O)NC(=O)[C@H](Cc1ccccc1)NC(=O)[C@H](CC(=O)O)NC(=O)[C@@H](N)CC(=O)O)C(=O)N[C@@H](Cc1c[nH]cn1)C(=O)O [PEP-3] (H-DDFNPSVH-OH; N-terminus and C-terminus assumed) | less than 10 ug/ml | 20% | 9% | 20%

From patent US20240316140A1 (UBIO INC., priority 2021, published 2024)
